Test [1] has as its system Ornithidorus turicata. As to the kind of experiment: Soft Tick (Ornithidorus turicata) Blood Feed Assay. The note with it: nymphs fed on treated citrated bovine blood; knockdown and/or death at 24 and 72 hours. The protocol: Soft Tick (Ornithidorus turicata) Blood Feed Assay
Compounds were dissolved in DMSO and aliquots were added to citrated bovine blood in membrane covered wells warmed to 37° C. 5 nymphs were placed on the membrane, allowed to feed to repleation, and were placed in observation wells. […] Endpoint results for subjective visual assessment of organism viability were recorded as LD100 (the lowest dose to cause 100% mortality).

For test [2], the system named is Ctenocephalides felis. As to the kind of experiment: Flea (Ctenocephalides felis) Membrane Feed Assay-Adult. The note with it: adult fleas fed on treated citrated bovine blood, knockdown and/or death at 24 hours, lowest dose causing mortality ≥50%, read-out: Minimum Effective Concentration (MEC). The protocol:
Flea (Ctenocephalides felis) Membrane Feed Assay-Adult
Compounds of the present invention were dissolved in DMSO and aliquots added to citrated bovine blood in membrane covered wells pre-warmed to 37° C. Adult fleas were newly emerged (3-7 days) and unfed. Feeding wells containing approximately 10 adult fleas were placed onto the treated blood wells, and the fleas were allowed to feed on the treated blood for 24 hours. […] Each compound was tested at half-log intervals, and endpoint data was recorded as Minimum Effective Concentration (MEC) in μM. MEC is a subjective visual assessment of organism viability, and is the lowest dose observed to cause mortality≧50%.

In test [3] the test system is Aedes aeqypti. As to the kind of experiment: Mosquito (Aedes aeqypti) Larval Assay - 1st Instar Larvae. Conditions: first instar larvae, 25° C., motility at 24 hours, lowest dose to inhibit motility ≥50% of untreated controls, read-out: Minimum Effective Concentration (MEC). On the procedure: Mosquito (Aedes aeqypti) Larval Assay—1st Instar Larvae
Compounds were dissolved in DMSO and aliquots were spotted to empty wells. First instar larvae and maintenance media were added to the wells to obtain between 8 and 12 larvae per well in the appropriate final assay volume. Larvae were incubated in the treated media at 25° C. for 24 hours. Mosquito larvae motility was measured at 24 hours. Each compound was tested at half-log intervals, and endpoint results were recorded as Minimum Effective Concentration (MEC) in μM. MEC is an objective assessment of organism motility, and is the lowest dose to inhibit motility≧50% of untreated controls.

Consider `CS(=O)(=O)CC(=O)N1CC2(C1)OCc1cc(C3=NOC(c4cc(Cl)cc(Cl)c4)(C(F)(F)F)C3)cnc12` (stereo not drawn) [Example 1, 3′-[5-(3,5-dichlorophenyl)-5-(trifluoromethyl)-4,5-dihydroisoxazol-3-yl]-1-[(methylsulfonyl)acetyl]-5′H-spiro[azetidin-3,7′-furo[3,4,b]pyridine]], for which, in test [1], the “LD100 (the lowest dose to cause 100% mortality)” value was 0.1 µg/mL. Further, the minimal effective concentration in test [2] is 3 µM; in test [3], 0.1 µM.
On the same counts, the results for `CS(=O)(=O)CC(=O)N1CC2(C1)OCc1cc(C3=NOC(c4cc(Cl)c(F)c(Cl)c4)(C(F)(F)F)C3)cnc12` (stereo not drawn) [Example 2, 3′-[5-(3,5-dichloro-4-fluorophenyl)-5-(trifluoromethyl)-4,5-dihydroisoxazol-3-yl]-1-[(methylsulfonyl)acetyl]-5′H-spiro[azetidin-3,7-furo[3,4,b]pyridine]] are 0.3 µg/mL, 1 µM and 0.03 µM.
For the molecule `CS(=O)(=O)CC(=O)N1CC2(C1)OCc1cc(C3=NOC(c4cc(Cl)c(Cl)c(Cl)c4)(C(F)(F)F)C3)cnc12` (stereo not drawn) [Example 3, 1-[(methylsulfonyl)acetyl]-3′-[5-(3,4,5-trichlorophenyl)-5-(trifluoromethyl)-4,5-dihydroisoxazol-3-yl]-5′H-spiro[azetidin-3,7′-furo[3,4,b]pyridine]], the “LD100 (the lowest dose to cause 100% mortality)” value in test [1] was found to be 0.3 µg/mL. In addition, the figures for the minimal effective concentration in test [2] and in test [3] were 1 µM and 0.03 µM, respectively.
The corresponding values for `CC(C)C(=O)N1CC2(C1)OCc1cc(C3=NOC(c4cc(Cl)c(F)c(Cl)c4)(C(F)(F)F)C3)cnc12` (stereo not drawn) [Example 4, 3′-[5-(3,5-dichloro-4-fluorophenyl)-5-(trifluoromethyl)-4,5-dihydroisoxazol-3-yl]-1-isobutyryl-5′ H-spiro[azetidin-3,7′-furo[3,4,b]pyridine]] are 0.03 µg/mL, 0.1 µM and 0.01 µM.
The corresponding values for `CC(C)C(=O)N1CC2(C1)OCc1cc(C3=NOC(c4cc(Cl)cc(Cl)c4)(C(F)(F)F)C3)cnc12` (stereo not drawn) [Example 5, 3′-[5-(3,5-dichlorophenyl)-5-(trifluoromethyl)-4,5-dihydroisoxazol-3-yl]-1-isobutyryl-5′H-spiro[azetidin-3,7′-furo[3,4,b]pyridine]] are 0.03 µg/mL, 1 µM and 0.03 µM.
The corresponding values for `CC(C)C(=O)N1CC2(C1)OCc1cc(C3=NOC(c4cc(Cl)c(Cl)c(Cl)c4)(C(F)(F)F)C3)cnc12` (stereo not drawn) [Example 6, 1-isobutyryl-3′-[5-(3,4,5-trichlorophenyl)-5-(trifluoromethyl)-4,5-dihydroisoxazol-3-yl]-5′H-spiro[azetidin-3,7′-furo[3,4,b]pyridine]] are 0.03 µg/mL, 1 µM and 0.01 µM.
Take `CS(=O)(=O)CC(=O)N1CC2(C1)OCc1nc(C3=NOC(c4cc(Cl)c(F)c(Cl)c4)(C(F)(F)F)C3)ccc12` (stereo not drawn) [Example 7, 1-(2′-(5-(3,5-dichloro-4-fluorophenyl)-5-(trifluoromethyl)-4,5-dihydroisoxazol-3-yl)-7′H-spiro[azetidine-3,5′-furo[3,4-b]pyridine]-1-yl)-2-(methylsulfonyl)ethanone]: in test [3], the minimal effective concentration was determined as 0.3 µM.
Still for that read-out and setting: in the case of `CS(=O)(=O)CC(=O)N1CC2(C1)OCc1nc(C3=NOC(c4cc(Cl)cc(Cl)c4)(C(F)(F)F)C3)ccc12` (stereo not drawn) [Example 8, 1-(2′-(5-(3,5-dichlorophenyl)-5-(trifluoromethyl)-4,5-dihydroisoxazol-3-yl)-7′H-spiro[azetidine-3,5′-furo[3,4-b]pyridine]-1-yl)-2-(methylsulfonyl)ethanone] it was 0.3 µM; in that of `CS(=O)(=O)CC(=O)N1CC2(C1)OCc1nc(C3=NOC(c4cc(Cl)c(Cl)c(Cl)c4)(C(F)(F)F)C3)ccc12` (stereo not drawn) [Example 9, 2-(methylsulfonyl)-1-(2′-(5-(3,4,5-trichlorophenyl)-5-(trifluoromethyl)-4,5-dihydroisoxazol-3-yl)-7′H-spiro[azetidine-3,5′-furo[3,4-b]pyridine]-1-yl)ethanone], 0.3 µM.
In the case of `CC(C)C(=O)N1CC2(C1)OCc1nc(C3=NOC(c4cc(Cl)c(F)c(Cl)c4)(C(F)(F)F)C3)ccc12` (stereo not drawn) [Example 10, 1-(2′-(5-(3,5-dichloro-4-fluorophenyl)-5-(trifluoromethyl)-4,5-dihydroisoxazol-3-yl)-7′H-spiro[azetidine-3,5′-furo[3,4-b]pyridine]-1-yl)-2-methylpropan-1-one], the “LD100 (the lowest dose to cause 100% mortality)” value in test [1] was 0.1 µg/mL. For the same molecule, the minimal effective concentration in test [2] is 3 µM; in test [3], 0.03 µM.
For the molecule `CC(C)C(=O)N1CC2(C1)OCc1nc(C3=NOC(c4cc(Cl)cc(Cl)c4)(C(F)(F)F)C3)ccc12` (stereo not drawn) [Example 11, 1-(2′-(5-(3,5-dichlorophenyl)-5-(trifluoromethyl)-4,5-dihydroisoxazol-3-yl)-7′H-spiro[azetidine-3,5′-furo[3,4-b]pyridine]-1-yl)-2-methylpropan-1-one], the “LD100 (the lowest dose to cause 100% mortality)” value in test [1] is 0.3 µg/mL. Further, the minimal effective concentration in test [3] came out at 0.3 µM.
With `CC(C)C(=O)N1CC2(C1)OCc1nc(C3=NOC(c4cc(Cl)c(Cl)c(Cl)c4)(C(F)(F)F)C3)ccc12` (stereo not drawn) [Example 12, 2-methyl-1-(2′-(5-(3,4,5-trichlorophenyl)-5-(trifluoromethyl)-4,5-dihydroisoxazol-3-yl)-7′H-spiro[azetidine-3,5′-furo[3,4-b]pyridine]-1-yl)propan-1-one], the “LD100 (the lowest dose to cause 100% mortality)” value in test [1] was determined as 0.3 µg/mL. The minimal effective concentration in test [3] worked out at 0.1 µM.
As to `CS(=O)(=O)CC(=O)N1CC2(C1)OCc1cc(C3=NOC(c4cc(Cl)c(F)c(Cl)c4)(C(F)(F)F)C3)ncc12` (stereo not drawn) [Example 13, 1-(6′-(5-(3,5-dichloro-4-fluorophenyl)-5-(trifluoromethyl)-4,5-di hydroisoxazol-3-yl)-1′H-spiro[azetidine-3,3′-furo[3,4-c]pyridine]-1-yl)-2-(methylsulfonyl)ethanone], the “LD100 (the lowest dose to cause 100% mortality)” value in test [1] came to 0.1 µg/mL. Also, the minimal effective concentration stood at 1 µM in test [2] and 0.01 µM in test [3].
Regarding `CS(=O)(=O)CC(=O)N1CC2(C1)OCc1cc(C3=NOC(c4cc(Cl)c(Cl)c(Cl)c4)(C(F)(F)F)C3)ncc12` (stereo not drawn) [Example 14, 2-(methylsulfonyl)-1-(6′-(5-(3,4,5-trichlorophenyl)-5-(trifluoromethyl)-4,5-dihydroisoxazol-3-yl)-1′H-spiro[azetidine-3,3′-furo[3,4-c]pyridine]-1-yl)ethanone], the “LD100 (the lowest dose to cause 100% mortality)” value in test [1] amounted to 0.3 µg/mL. The minimal effective concentration in test [2] is 1 µM; in test [3], 0.01 µM.
On to `CS(=O)(=O)CC(=O)N1CC2(C1)OCc1cc(C3=NOC(c4cc(Cl)cc(Cl)c4)(C(F)(F)F)C3)ncc12` (stereo not drawn) [Example 15, 1-(6′-(5-(3,5-dichlorophenyl)-5-(trifluoromethyl)-4,5-dihydroisoxazol-3-yl)-1′H-spiro[azetidine-3,3′-furo[3,4-c]pyridine]-1-yl)-2-(methylsulfonyl)ethanone], for which the figures for the minimal effective concentration in test [2] and in test [3] were 3 µM and 0.03 µM, respectively.
As for `CC(C)C(=O)N1CC2(C1)OCc1cc(C3=NOC(c4cc(Cl)c(F)c(Cl)c4)(C(F)(F)F)C3)ncc12` (stereo not drawn) [Example 16, 1-(6′-(5-(3,5-dichloro-4-fluorophenyl)-5-(trifluoromethyl)-4,5-dihydroisoxazol-3-yl)-1′H-spiro[azetidine-3,3′-furo[3,4-c]pyridine]-1-yl)-2-methylpropan-1-one], the “LD100 (the lowest dose to cause 100% mortality)” value in test [1] turned out to be 0.03 µg/mL. Also, the minimal effective concentration is 0.1 µM in test [2] and 0.001 µM in test [3].
On the same counts, the results for `CC(C)C(=O)N1CC2(C1)OCc1cc(C3=NOC(c4cc(Cl)c(Cl)c(Cl)c4)(C(F)(F)F)C3)ncc12` (stereo not drawn) [Example 17, 2-methyl-1-(6′-(5-(3,4,5-trichlorophenyl)-5-(trifluoromethyl)-4,5-dihydroisoxazol-3-yl)-1′H-spiro[azetidine-3,3′-furo[3,4-c]pyridine]-1-yl)propan-1-one] are 0.03 µg/mL, 0.1 µM and 0.01 µM.
On the same counts, the results for `CC(C)C(=O)N1CC2(C1)OCc1cc(C3=NOC(c4cc(Cl)cc(Cl)c4)(C(F)(F)F)C3)ncc12` (stereo not drawn) [Example 18, 1-(6′-(5-(3,5-dichlorophenyl)-5-(trifluoromethyl)-4,5-dihydroisoxazol-3-yl)-1′H-spiro[azetidine-3,3′-furo[3,4-c]pyridine]-1-yl)-2-methylpropan-1-one] are 0.03 µg/mL, 0.3 µM and 0.01 µM.

These data come from patent publication US9131697B2, “Spirocyclic isoxazolines as antiparasitic agents” (Zoetis Services LLC, priority 2012, dated 2015).
